Patent publication US8697668B2, “Compositions and methods for preventing and treating cancer via modulating UBE1L, ISG215 and/or UBP43” (Trustees of Dartmouth College, priority 2002, dated 2014)
Read-outs that look alike come from different tables or passages of the source. Where a SMILES comes first, the peptide text is derived from it. [ ]: non-standard residue; d: D form. Nle = CCCC[C@H](N)C(=O)O

Experiments:
[1] = system: ISG15-conjugated cyclin D1; experiment: Immunoprecipitation/immunoblot of ISG15-cyclin D1 conjugates in BEAS-2B cells; assay type: cell-based, human; settings: BEAS-2B cells co-transfected with UBE1L, ISG15 and cyclin D1
Excerpt: Cells were lysed with ice-cold radioimmunoprecipitation (RIPA) lysis buffer, using established techniques (Pitha-Rowe, et al. (2004) supra; Pitha-Rowe, et al. (2004) supra; Feng, et al. (2007) supra; Ma, et al. (2005) Cancer Res. 65:6476-83). Lysates were size-fractionated by sodium dodecyl sulphate-polyacrylamide gel electrophoresis (SDS-PAGE) assays before transfer to nitrocellulose membranes (Schleicher & Schuell Bioscience, Inc., Keene, N.H.). The polyclonal antibody recognizing the UBE1L amino terminus of UBE1L was used for immunoblot and immunohistochemical assays. Other primary antibodies for immunoblot assays included a rabbit polyclonal antibody recognizing cyclin D1 (M-20) (Santa Cruz Biotechnology, Santa Cruz, Calif.), a murine monoclonal antibody against hemagglutinin (HA)-tagged proteins (Babco, Richmond, Calif.) and a goat polyclonal antibody recognizing actin (Santa Cruz Biotechnology). Anti-mouse and anti-rabbit antisera were purchased (Amersham Biosciences, Piscataway, N.J.) as was anti-goat antisera (Santa Cruz Biotechnology) and these were used as respective secondary antibodies. Membranes used for immunoblot analyses were treated with the MEMCODE reversible stain (Pierce, Rockford, Ill.). […] Quantification of signal intensities was scored as before (Shah, et al. (2008) supra; Feng, et al. (2007) supra; Ma, et al. (2005) supra). […]

UBE1L [2] = experiment: UBE1L mRNA expression, reverse transcription-PCR in NB4 APL cells; assay type: cell-based; settings: 10 μM RA
Experimental: (§1) The NB4 APL cell line expresses PML/RARα (Lanotte, et al. (1991) Blood 77:1080-1086). NB4-S1 and NB4-R1 are RA-sensitive and RA-resistant clones of NB4 cells, respectively (Nason-Burchanel, et al. (1997) Differentiation 61:321-331). These cells were cultured in RPMI-1640 medium supplemented with 10% FBS (see, Nason-Burchenal et al. (1997) supra).
UBE1L mRNA expression was assessed by a reverse transcription-PCR assay in accordance with established methods (Kakizuka et al. (1991) Cell 68:663-674). The forward primer was 5′-AGGTGGCCAAGAACTTGGTT-3′ (SEQ ID NO:8), and the reverse primer was 5′-CACCACCTGGAAGTCCAACA-3′ (SEQ ID NO:9). The PCR product was visualized by probing with a ^32P-labeled primer. Results were confirmed independently by Northern analysis using a 1.0-kb EcoRI/NcoI-radiolabeled UBE1L probe in accordance with standard techniques (Langenfeld et al. (1997) Proc. Natl. Acad. Sci. USA 94:12070-12074). This probe had limited homology to E1.

ISG15 [3] = experiment: ISG15 expression and conjugation in NB4 cells; assay type: cell-based
E1 = E1 mRNA expression in NB4-S1 cells; assay type: cell-based; settings: RA 1 μM
NB4-S1 APL cells = experiment: NBT reduction maturation (differentiation) assay; assay type: cell-based; settings: 5 days treatment with RA (1 μM)
Experimental: as §1
NB4 cell differentiation was scored by using the nitroblue tetrazolium (NBT) reduction assay (Nason-Burchenal, et al. (1997) supra; Nason-Burchenal, et al. (1998a) Blood 92:1758-1767; Nason-Burchanel, et al. (1998b) Oncogene 17:1759-1768) Transductants were identified by green fluorescent protein (GFP) coexpression. Apoptosis was scored by using established techniques and Hoechst staining of transductants that co-expressed GFP (Nason-Burchenal, et al. (1998a) supra; Nason-Burchenal, et al. (1998b) supra; Stadheim, et al. (2001) Cancer Res. 61:1533-1540). Digital images were collected using an OLYMPUS 1×70 inverted microscope, a cooled charge-coupled device camera, and a MIRACAL Pro Single Cell Imaging System (OLYMPUS LSR Research, Melville, N.Y.).

UBE1L [4] = experiment: UBE1L immunoblot expression in NB4 cells; assay type: cell-based; settings: NB4-S1 APL cells, RA 1 μM
Excerpt: Two rabbit polyclonal antibodies against UBE1L were independently derived (Covance Research Products, Denver, Pa.) using one peptide within the amino terminus (Asp-Cys-Asp-Pro-Arg-Ser-Ile-His-Val-Arg-Glu-Asp-Gly-Ser-Leu-Glu-Ile-Gly-Asp (SEQ ID NO:10)) and a second peptide within the carboxyl terminus (Pro-Gly-Ser-Gln-Asp-Trp-Thr-Ala-Leu-Arg-Glu-Leu-Leu-Lys-Leu-Leu (SEQ ID NO:11)). Specificities of these antisera were confirmed by immunoblot analyses of UBE1L-transfected CHO cells.
Immunoblot analyses were performed using established techniques (Langenfeld, et al. (1997) Proc. Natl. Acad. Sci. USA 94:12070-12074; Spinella, et al. (1999) J. Biol. Chem. 274:22013-22018). Anti-RARα antibody was provided by and can be purchased from P. Chambon (Institut National de la Sant et de la Recherche Mdicale, Strasbourg, France) to detect PML/RARα (Nason-Burchenal, et al. (1998) Blood 92:1758-1767; Nason-Burchenal, et al. (1998) Oncogene 17:1759-1768). An anti-HA mAb was purchased (Babco, Richmond, Calif.) as was an anti-actin polyclonal antibody, C-11 (Santa Cruz Biotechnology, Santa Cruz, Calif.).

cyclin D1 [5] = experiment: Cyclin D1 immunoblot in BEAS-2B cells; assay type: cell-based, human
Experimental: (§2) The H358 lung cancer cell line was cultured in RPMI-1640 medium (INVITROGEN Corporation, Carlsbad, Calif.) containing L-glutamine, 10% fetal bovine serum and 1% antibiotic-antimycotic solution (CELLGRO, Herndon, Va.) (Petty, et al. (2004) Clin. Cancer Res. 10:7547-54). Cells were incubated at 37° C. in a humidified incubator with 5% CO2. Bexarotene treatments of HBE and lung cancer cells were accomplished according to known methods (Dragnev, et al. (2007) Clin. Cancer Res. 13:1794-800; Dragnev, et al. (2005) J. Clin. Oncol. 23:8757-64).
(§3) Cells were lysed with ice-cold radioimmunoprecipitation (RIPA) lysis buffer, using established techniques (Pitha-Rowe, et al. (2004) supra; Pitha-Rowe, et al. (2004) supra; Feng, et al. (2007) supra; Ma, et al. (2005) Cancer Res. 65:6476-83). Lysates were size-fractionated by sodium dodecyl sulphate-polyacrylamide gel electrophoresis (SDS-PAGE) assays before transfer to nitrocellulose membranes (Schleicher & Schuell Bioscience, Inc., Keene, N.H.). The polyclonal antibody recognizing the UBE1L amino terminus of UBE1L was used for immunoblot and immunohistochemical assays. […] Quantification of signal intensities was scored as before (Shah, et al. (2008) supra; Feng, et al. (2007) supra; Ma, et al. (2005) supra). […]

cyclin D1 [6] = experiment: Cyclin D1 immunohistochemical expression, post- versus pretreatment lung cancer biopsies; assay type: in vivo
Excerpt: (§4) Paraffin-embedded and formalin-fixed tissues were obtained from an Institutional Review Board-approved proof of principle bexarotene lung cancer trial (Dragnev, et al. (2007) supra). Tissues were examined for cyclin D1 (Petty, et al. (2004) supra; Dragnev, et al. (2007) supra; Dragnev, et al. (2005) supra), UBE1L (Pitha-Rowe, et al. (2004) supra), ISG15 (Andersen, et al. (2006) Br. J. Cancer 94:1465-71), and Ki-(Petty, et al. (2004) supra; Dragnev, et al. (2007) supra; Dragnev, et al. (2005) supra) immunohistochemical expression profiles.

Ki-67 = Ki-67 immunostaining (proliferation), post- versus pretreatment lung cancer biopsies; assay type: in vivo
Excerpt: as §4

ISG15 [7] = experiment: ISG15 immunohistochemical expression, post- versus pretreatment lung cancer biopsies; assay type: in vivo; settings: post- and pre-bexarotene treatment biopsies of the lung cancer cases
Excerpt: as §4

[8] = cited from earlier work
cyclin D1 [9] = experiment: Cyclin D1 immunoblot in H358 cells; assay type: cell-based
Experimental: as §2, §3

UBE1L [10] = experiment: UBE1L immunohistochemical expression, post- versus pretreatment lung cancer biopsies; assay type: in vivo
Excerpt: as §4

[11] = system: BEAS-2B human bronchial epithelial cells; experiment: Clonal growth assay; assay type: cell-based; settings: bexarotene treatment, FIG. 2
Experimental: Human bronchial epithelial cells (BEAS-2B) were cultured in serum-free LHC-9 medium (Biofluids, Rockville, Md.) in accordance with established techniques (Langenfeld, et al. (1997) Proc. Natl. Acad. Sci. USA 94:12070-12074; Boyle, et al. (1999) J. Natl. Cancer Inst. 91:373-379).
Five μg of MSCVIRES-UBE1L-GFP and an empty vector were independently transfected into the Phoenix Amphotropic packaging cell line (ATCC, Manassas, Va.) using EUGENE 6 (Roche, Indianapolis, Ind.), and the vendor's recommended procedures. Forty-eight hours later, viral supernatants were […] respective transduced BEAS-2B HBE or H358 lung cancer cells with 4 μg/ml POLYBRENE (Sigma). Forty-eight hours later, cells positive for GFP expression were harvested using a FACSTAR Plus (Becton Dickinson, San Jose, Calif.) high speed sorting cytometer. This was repeated one week later to enrich for studied transductants.
Clonal growth assays (Langenfeld, et al. (1996) Oncogene 13:1983-90) were performed using 5×10^2 BEAS-2B and 1×10^3 H358 cells. These cells were independently engineered to over-express UBE1L or a control vector. […] Two weeks later, visible colonies were fixed and stained with DIFF QUIK solution (Baxtor, McGaw Park, Ill.) and quantified with the Col Count instrument (Oxford Optronix, Oxford, UK).

UBE1L [12] = experiment: UBE1L immunoblot in BEAS-2B cells; assay type: cell-based, human; settings: 1 μM, 10 days treatment versus vehicle
Experimental: as §2, §3

[13] = case with low bexarotene levels
[14] = lung cancer case with high levels
[15] = representative lung cancer case with low levels

CCCC[C@@H](C=O)NC(=O)[C@H](CC(C)C)NC(=O)[C@H](CC(C)C)NC(C)=O [ALLN] (Ac-Leu-Leu-[Nle]-aldehyde)
ISG15ylated cyclin D1 species [1]: stabilized

CC1=C(/C=C/C(C)=C/C=C/C(C)=C/C(=O)O)C(C)(C)CCC1 [RA, All-trans-retinoic acid]
UBE1L expression (UBE1L [2]; RA-resistant NB4-R1 cell line, same time period): not induced | UBE1L mRNA induction (UBE1L [2]; RA-sensitive NB4-S1 cells, reverse transcription-PCR): induction occurred by three hours | ISG15 expression (ISG15 [3]; RA-sensitive NB4 cells): augments | intracellular ISG15 conjugation (ISG15 [3]; retinoid-sensitive NB4 cells): increases | E1 mRNA (E1): not induced | NBT, % (NB4-S1 APL cells): 92% | UBE1L protein expression (UBE1L [4]): induced

C=C(c1ccc(C(=O)O)cc1)c1cc2c(cc1C)C(C)(C)CCC2(C)C [Bexarotene]
cyclin D1 protein (cyclin D1 [5]): repressed | cyclin D1 expression in post-versus pre-treatment biopsies (cyclin D1 [6]; case with high bexarotene plasma and intratumoral levels): declined | cyclin D1 immunohistochemical expression profile (cyclin D1 [6]; [13]): not appreciably altered | proliferation, Ki-67 immunostaining (Ki-67; case with high bexarotene levels, post-versus pretreatment biopsies): decrease | Repression of Ki-67 immunostaining (Ki-67; [13]): not observed | ISG15 immunohistochemical expression (ISG15 [7]): similar | bexarotene intratumoral level [8, 14]: 0.31 µM | bexarotene plasma level [8, 14]: 1.49 µM | bexarotene intratumoral level [8, 15]: 0.09 µM | bexarotene plasma level [8, 15]: 0.13 µM | cyclin D1 protein (cyclin D1 [9]): repressed | odds ratio, association between intratumoral bexarotene concentration and UBE1L increase (UBE1L [10]; 95% asymptotic CI 0.1, 354.9): 6 | UBE1L immunohistochemical expression (UBE1L [10]; case with high bexarotene levels): increase | UBE1L immunohistochemical expression profile (UBE1L [10]; [13]): not appreciably altered | response rate for UBE1L (UBE1L [10]; five cases examined, 95% CI 1, 72): 20% | BEAS-2B clonal growth [11]: dose-dependent decline | BEAS-2B clonal growth ([11]; listed as bexarotene): Dose-dependent inhibition | UBE1L expression (UBE1L [12]): prominently increased
